Where “and” joins values, the source holds several entries; their conditions need not be identical. Identical values can stand only once. Entries after “also recorded” stand apart in the source; their conditions may differ. Like-named read-outs stand apart in the source and are kept apart here. Marks after values point to notes of the source that are not given here.
Experiments:
[1] = Pharmacokinetics, plasma and lung, rat; conditions: rats, single intravenous dose 0.2 mg/kg
[2] = tested on: THP-1 cells; experiment: MTT cell proliferation assay (cytotoxicity control); format: cell-based, human; conditions: activators combined with 100 nM plitidepsin, 6 hours
[3] = tested on: TLR-trigged cytokine secretion in THP-1 cells; experiment: ELISA assays for secreted cytokines, TLR ligands combined with plitidepsin; conditions: 100 nM plitidepsin with TLR ligands, 6 hours, THP-1, ELISA
Method: To investigate whether plitidepsin inhibits the TLR-trigged cytokine secretion, we treated THP-1 cells with 100 ng/mL TNFα (an activator of NF-κB), 500 μg/mL poly I:C (TLR3 ligand), 10 μg/mL LPS-B5 (TLR4 ligand) or 10 μg/mL Resiquimod (TLR-7/8 ligand). The compounds were used either alone (grey bars) or combined with 100 nM of plitidepsin (red bars) for 6 hours. We compared the variations in cytokine secretion in the cell culture supernatants between the different treatments by ELISA assays.
THP1-NFκB-LUC cell cultures were treated as described above, and the culture medium was sampled at 6 hours post-treatment to assay for secreted cytokines by ELISA. Media samples were stored at 4-C. IL-8, IL-1β, IL-6 and TNFα protein secretion into culture medium was quantitated using highly specific and sensitive ELISA kits. Human IL-lb, human IL-6, human IL-8 and human TNF OptEIA™ ELISA kits were obtained from BD Biosciences and performed as described by the manufacturer. The data presented are the average of three independent experiments performed in triplicate.

[4] = Pharmacokinetics, plasma and lung, hamster; conditions: hamsters, single intravenous dose 0.2 mg/kg
[5] = Pharmacokinetics in patients; format: in vivo, Human
[6] = Stability of plitidepsin drug product and reconstituted solution; format: physicochemical
Method: Plitidepsin will be labelled with the study protocol code, the batch number, the content, the expiry date, the storage conditions, the name of the investigator and the sponsor. The study drug will be labelled in accordance with Annex 13 of the European Good Manufacturing Practices. Plitidepsin should be stored between 2° C. and 8° C. and the vials should be kept in the outer carton to protect them from light. The drug in these conditions is stable for 60 months.
After reconstitution of the 2 mg plitidepsin vial with 4 ml of the solution for reconstitution of macrogolglycerol ricinoleate/ethanol/water for injection, the reconstituted solution should be diluted and used immediately after preparation. If not used immediately, storage times and conditions until use are the responsibility of the user. […] If storage is required before administration, solutions should be stored refrigerated and protected from light and should be used within 24 hours after reconstitution.

[7] = tested on: NF-κB; experiment: NF-κB transactivation luciferase assay; format: cell-based, human; conditions: 100 nM plitidepsin, 6 hours, with poly I:C, LPS-B5 or Resiquimod; THP-1 NF-κB-Luc cells
Method: Luminescence was measured in a Perkin-Elmer EnVision reader.

[8] = tested on: alveolar macrophages; conditions: mice, plitidepsin 1 mg/kg i.v. with LPS 20 μg/kg i.p., three hours
[9] = Pharmacokinetics, plasma and lung, mouse
[10] = tested on: LPS-trigged cytokine secretion in alveolar macrophages; experiment: Ex vivo LPS-B5-triggered cytokine secretion in bronchoalveolar lavage cells of treated mice; conditions: mice 1 mg/kg i.v.
Method: To that end mice were injected i.v. with plitidepsin (1 mg/kg) or vehicle and 12 hours after administration bronchoalveolar lavage fluid (BAL) was collected. Cells were plated and treated ex-vivo or not with 15 μg/mL of LPS-B5 for 3 or 6 hours and secreted cytokines were measured.
Mice were randomized into groups of five animals to receive the treatments. Mice were injected intra venous (i.v.) with plitidepsin (1 mg/kg) and 12 hours after administration were euthanized. Control group received plitidepsin vehicle diluted with saline (Cremophor/Ethanol/Water). Bronchoalveolar lavage fluid (BAL) of each group was collected and centrifugated to obtain bronchoalveolar lavage cells. Cells underwent red blood cell lysis (Roche) and were plated and treated ex-vivo or not with 15 μg/mL of LPS-B5 for 3 or 6 hours. Secreted cytokines were measured using highly specific and sensitive ELISA kits. Mouse IL-6, mouse IL-10 and mouse TNF DuoSet ELISA kits were obtained from R&D Systems and performed as described by the manufacturer.

[11] = tested on: cytokine secretion induced by Resiquimod in THP-1 cells; experiment: Plitidepsin pre-treatment of THP-1 NFκB luc cells before Resiquimod stimulus; format: cell-based, human; conditions: 1, 10 or 50 nM added 8 hours before Resiquimod 2.5 or 5 μg/mL; measured at 24 hours
Method: At 0 time THP-1 cells were treated with 1 nM, 10 nM or 50 nM APL or DMSO (0.2%) followed by stimulus with Resiquimod at 2.5 or 5 μg/mL at 8 hours. At 24 hours cytokines or cell viability was measured.
In a further in vitro experiment, the effect of plitidepsin (APL) pre-treatment on THP-1 cells was studied. Using a THP-1 NFκB luc line, 1, 10 or 50 nM of APL or DMSO (0.2%) was added 8 hours before stimulus with Resiquimod (RQ) at 2.5 or 5 μg/mL. RQ is a TLR7/8 agonist and mimics ssRNA. At 24 hours the level of cytokines or cell viability was measured.

[12] = tested on: COVID-19; format: in vivo, human
Method: All patients received the following prophylactic medications 20-30 minutes before the infusion of plitidepsin: • Diphenhydramine hydrochloride 25 mg iv or equivalent. • Ranitidine 50 mg iv or equivalent. • Dexamethasone 6.6 mg intravenous. • Ondansetron 8 mg i.v. in slow infusion of 15 minutes or equivalent.
Patients included in the study will receive treatment for 3 days.

[13] = tested on: resiquimod (RQ)-trigged cytokine secretion in BALF; experiment: Resiquimod intranasal inflammation model, TNFα in BALF; conditions: mice 1 mg/kg i.v. 1 hour before Resiquimod 50 μg/mouse intranasal; 1 or 3 hours after RQ
Method: We further checked whether plitidepsin inhibits resiquimod (RQ)-trigged cytokine secretion in BALF. Mice were injected i.v. with plitidepsin (1 mg/kg) or vehicle 1 hour before a 50 μg/mouse intranasal inoculation with resiquimod. At 1 or 3 hours after intranasal administration of RQ bronchoalveolar lavage fluid (BALF) was collected. Cells were plated and secreted cytokines were measured.
In another inflammation model, mice were randomized into groups of two animals to receive the treatments. Mice were challenged with plitidepsin (1 mg/kg) intra venous (i.v.) followed by Resiquimod (50 μg/mouse, intranasal) 1 hour latter. The control group received plitidepsin vehicle (Cremophor/Ethanol/Water) diluted with saline. One and 3 hours later, animals were euthanized, bronchoalveolar lavage collected (a total of 1.2 ml, PBS) and then, TNFα quantified by ELISA kits.

[14] = Human (M/F), 0.135 mg/kg (Recommended Dose 5 mg/m2, 3-h intravenous infusion)
[15] = Human, 0.02 mg/kg (1.5 mg/patient), following 3 daily doses, estimated from population PK model
[16] = Mouse (F) C57BL6/J, 1.0 mg/kg single intravenous bolus, plasma
[17] = BAL cells 12 hours after, ex vivo 15 μg/mL LPS-B5 for 3 or 6 hours, listed as plitidepsin, 1 mg/kg
[18] = individual patients, PLD 2.0 mg×3

In the case of “(−)-(3S,6R,7S,10R,11S,15S,17S,20S,25aS)-11-hydroxy-3-(4-methoxybenzyl)-2,6,17-trimethyl-15-(1-methylethyl)-7-[[(2R)-4-methyl-2-[methyl[[(2S)-1-(2-oxopropanoyl)pyrrolidin-2-yl]carbonyl]amino]pentanoyl]amino]-10-[(1S)-1-methylpropyl]-20-(2-methylpropyl)tetradecahydro-15H-pyrrolo[2,1-f]-[1,15,4,7,10,20]dioxatetrazacyclotricosine-1,4,8,13,16,18,21(17H)-heptone [PLD]”, the “lung-to-plasma ratio (lungAUC0-∞/plasmaAUC0-∞)” value (from here on “lung-to-plasma ratio”) [1] is reported as 460, the “Survival (MTT assay), cytotoxic effect” value [2] is reported as “No cytotoxic effect” and the “production of IL-1” value [3] is reported as “clearly inhibited”. For the same substance, the “production of IL-6” value [3] was “clearly inhibited”, the “production of IL-8” value [3] was “clearly inhibited” and the “production of TNFα” value [3] was “clearly inhibited”. The “lung-to-plasma ratio” value [4] was 909, the “AUC0-∞” value [5, 14] was 256.0 ng·h/mL and the Cl [5, 14] was 0.7 to 0.9 L/h/kg. For the same substance, the Cmax [5, 14] was 29.1 ng/mL, the Vdss [5, 14] was 29-33 L7 kg and the t1/2 [5, 14] was 20 to 80 h. The “AUC0-∞” value [5, 15] was 174.0^d ng · h/mL, the Cmax [5, 15] was 8.5^d ng/mL and the “physical, chemical and microbiological stability of reconstituted concentrated solution” value ([6]; original vial under indoor light at room temperature) was 6 hours. The “physical, chemical and microbiological stability of reconstituted concentrated solution” value ([6]; refrigerated conditions (5° C.±3° C.)) was 24 hours, the “stability of the drug (2 mg vial, powder)” value ([6]; stored between 2° C. and 8° C., in outer carton protected from light) was 60 months and the “production of luciferase (NF-κB transactivation)” value [7] was “clearly inhibited”. The “cytotoxic effects (CD45+ alive cells in bronchoalveolar lavage)” value [8] was “without cytotoxic effects”, the “percentage of macrophages present in bronchoalveolar lavage” value [8] was “decrease” and the “AUC0-∞” value [9, 16] was 225.3 ng·h/mL. For the same substance, the Cl [9, 16] was 4.4 L/h/kg, the Cmax [9, 16] was 50.7 ng/mL and the Vdss [9, 16] was 101.8 L7 kg. The t1/2 [9, 16] was 18.2 h, the “Maximum Tolerated Dose” value ([9]; Mouse (F) C57BL6/J, single intravenous bolus) was 1.0^a mg/kg and the “lung-to-plasma ratio” value ([9]; mice, single intravenous dose 1.0 mg/kg) was 133. For the same substance, the “secretion of IL-10 induced by LPS-B5” value ([10]; BAL cells 12 hours after, ex vivo 15 μg/mL LPS-B5 for 3 or 6 hours) was “significantly reduce”, the “secretion of IL-6 induced by LPS-B5” value [10, 17] was “clearly inhibited; also recorded: significantly reduce” and the “secretion of TNFα induced by LPS-B5” value [10, 17] was “clearly inhibited; also recorded: significantly reduce”. For the same substance, the “cell viability of CD45+ cells from bronco-alveolar lavages” value ([10]; LPS-B5 ex vivo) was “unrelated to cell viability”, the “secretion of IL1β” value [11] was “inhibited” and the “secretion of IL6” value [11] was “inhibited”. For the same substance, the “secretion of IL8” value [11] was “inhibited”, the “secretion of TNF-α” value [11] was “inhibited” and the tolerability ([12]; 45 patients, 1.5, 2.0 and 2.5 mg daily for 3 days, all 3 dose cohorts) was “well tolerated”. For the same substance, the “Hospital discharge by day” value [12, 18] was ≤ 10 days and ≤ 8 days, the “PCR COVID 19 test converted to negative by day” value [12, 18] was ≤ 15 day and ≤ 7 day and still positive at day 7 and the clinical outcome [12, 18] was “major clinical improvement”. For the same substance, the “patients discharged by Day 15” value ([12]; mild disease, across dose cohorts (9/9)) was 100%, the “patients discharged by Day 15” value ([12]; moderate disease, across dose cohorts (23/28)) was 82% and the “Bilateral pneumonia resolved by day” value ([12]; patient 5, PLD 1.5 mg×3) was at most 6 days. The C-reactive protein ([12]; patient 5, PLD 1.5 mg×3) was “acute fall is seen by day 2”, the C-reactive protein ([12]; patients 7 and 9, PLD 2.0 mg×3) was “acute fall is seen by day 3” and the “patients discharged by Day 15” value ([12]; severe disease, across dose cohorts (4/7)) was 57%. For the same substance, the “production of TNFα in BALF” value [13] was “prevented the increased production”.
